target: T1, CCR1 (Homo sapiens, UniProt P32246); test: Calcium flux assay in CCR1 transfected cells (block of CCR1/MIP-1α interaction); assay type: cell-based; details: cells stably expressing recombinant CCR1 and G-alpha-16; MIP-1 alpha at EC80; mean
T1 sequence (P32246 1-355): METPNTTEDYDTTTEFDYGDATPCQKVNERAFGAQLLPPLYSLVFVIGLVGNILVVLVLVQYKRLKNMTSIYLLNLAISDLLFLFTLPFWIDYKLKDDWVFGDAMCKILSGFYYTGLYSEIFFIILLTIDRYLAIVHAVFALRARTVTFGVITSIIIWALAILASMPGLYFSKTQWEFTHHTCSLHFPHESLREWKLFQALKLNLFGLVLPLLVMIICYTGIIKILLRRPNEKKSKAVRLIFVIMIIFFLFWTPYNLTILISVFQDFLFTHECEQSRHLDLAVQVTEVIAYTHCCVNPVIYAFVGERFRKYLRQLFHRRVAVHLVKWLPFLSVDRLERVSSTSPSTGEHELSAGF
Method: Compounds are assessed for the ability to block the interaction of CCR1 and MIP-1α in a functional cellular assay measuring calcium flux in CCR1 transfected cells.
Non-adherent cells purchased from Chemicon Corporation (HTS005C), stably expressing recombinant CCR1 and G-alpha-16 are grown in RPMI 1640 medium (Mediatech 10-080-CM) supplemented with 10% FBS, 0.4 mg/mL Geneticin and penicillin/streptomycin. On the day of the assay, the cells are loaded with Calcium 4 dye (Molecular Devices R7448) with Probenecid (Invitrogen P346400) at 8E5 cells/mL for 1 hour at room temperature. After 1 hour, they are seeded in a 384-well tissue culture-treated plate at a density of 20,000 cells/well. Appropriately diluted test compound is added to the well to achieve a top concentration of 3,000 nM (diluted 4-fold with 10 doses total). The final concentration of DMSO is 1%. The buffer is HBSS (Invitrogen 14025) with 20 mM HEPES at pH 7.4. The cells incubate 30 minutes at 37 C and then 30 minutes at room temperature. The plates are transferred to the HAMAMATSU FDSS6000 where MIP-1 alpha in 1% BSA is added at the EC80 final concentration. All plates must be read within 4 hours of the start of dye-loading. Wells+/−MIP-1 alpha containing diluted DMSO instead of compound serve as the controls. Data are analyzed using Activity Base software.

Row | IC50 | SMILES
1 | 2.1 nM | Cc1cc(C)c(S(C)(=O)=O)cc1NC(=O)c1cncc2c1cnn2-c1ccc(F)cc1
2 | 2.8 nM | Cc1cc(Cl)cc(C)c1NC(=O)c1cncc2c1cnn2-c1ccc(F)cc1
3 | 6.9 nM | Cc1noc(C)c1NC(=O)c1cncc2c1cnn2-c1ccc(F)cc1
4 | 8.8 nM | Cc1nc(Cl)ccc1NC(=O)c1cncc2c1cnn2-c1ccc(F)cc1
5 | 14 nM | Cc1onc(-c2ccccc2)c1NC(=O)c1cncc2c1cnn2-c1ccc(F)cc1
6 | 19 nM | Cc1cc(C)c(NC(=O)c2cncc3c2cnn3-c2ccc(F)cc2)c(C)c1
7 | 21 nM | Cc1ccnc(C)c1NC(=O)c1cncc2c1cnn2-c1ccc(F)cc1
8 | 24 nM | COC(=O)c1ccc(NC(=O)c2cncc3c2cnn3-c2ccc(F)cc2)c(C)c1
9 | 30 nM | Cc1cc(-c2nnco2)ccc1NC(=O)c1cncc2c1cnn2-c1ccc(F)cc1
10 | 36 nM | Cc1cccc(Cl)c1NC(=O)c1cncc2c1cnn2-c1ccc(F)cc1
11 | 66 nM | Cc1cc(C(=O)N(C)C)ccc1NC(=O)c1cncc2c1cnn2-c1ccc(F)cc1
12 | 73 nM | Cn1nccc1-c1cccc(NC(=O)c2cncc3c2cnn3-c2ccc(F)cc2)c1
13 | 82 nM | Cc1ccc(NC(=O)c2cncc3c2cnn3-c2ccc(F)cc2)c(Cl)n1
14 | 84 nM | Cn1ncc(-c2ccccc2)c1NC(=O)c1cncc2c1cnn2-c1ccc(F)cc1
15 | 93 nM | CNC(=O)c1ccc(NC(=O)c2cncc3c2cnn3-c2ccc(F)cc2)c(C)c1
